The source made the active and inactive calls. No cut-off for these calls is given here.
What was measured:
[1] = tested on: A549; experiment: Antitumor activity against Homo sapiens (human) A549 cells assessed as inhibition of cell viability after 72 hr by MTT assay; format: functional, cell-based; details: A549, 72 h
[2] = tested on: HepG2; experiment: Antitumor activity against Homo sapiens (human) HepG2 cells assessed as inhibition of cell viability after 72 hr by MTT assay; format: functional, cell-based; details: HepG2, 72 h
[3] = tested on: HEK293; experiment: Cytotoxicity against Homo sapiens (human) HEK293 cells assessed as inhibition of cell viability after 72 hr by MTT assay; format: cell-based; details: HEK293, 72 h
[4] = Antitumor activity against Homo sapiens (human) LN229 cells assessed as inhibition of cell viability after 72 hr by MTT assay; format: functional, cell-based; details: LN-229, 72 h
[5] = tested on: HCT-116; experiment: Decrease in VEGF protein expression in Homo sapiens (human) HCT116 cells at 2.5 to 10 uM after 48 hr by westerrn blot analysis; format: functional, cell-based
[6] = tested on: DU-145; experiment: Antitumor activity against Homo sapiens (human) DU145 cells assessed as inhibition of cell viability after 72 hr by MTT assay; format: functional, cell-based; details: DU-145, 72 h
[7] = tested on: HCT-116; experiment: Antitumor activity against Homo sapiens (human) HCT116 cells assessed as inhibition of cell viability after 72 hr by MTT assay; format: functional, cell-based; details: HCT-116, 72 h

SMILES	IC50 [1]	IC50 [2]	IC50 [3]	IC50 [4]	inhibition [5]	IC50 [6]	IC50 [7]
CCCNc1cc(-c2ccccc2)nc2cc(OC)cc(OC)c12	13.1 µM	5.21 µM	2 µM	1.82 µM	Active	9.77 µM	0.97 µM
COc1cc(OC)c2c(N3CCN(C)CC3)cc(-c3ccccc3)nc2c1	> 100 µM	22.6 µM	3.66 µM	1.75 µM	–	16.4 µM	7.43 µM
O=c1[nH]cc(F)c(=O)[nH]1 [FLUOROURACIL]	> 100 µM	19.2 µM	–	–	–	2.95 µM	1.93 µM
COc1cc(OC)c2c(-n3ccnc3)cc(-c3ccccc3)nc2c1	> 100 µM	58.6 µM	–	55.3 µM	–	> 100 µM	42.4 µM
COc1cc(OC)c2c(N3CCCCC3)cc(-c3ccccc3)nc2c1	> 100 µM	> 100 µM	68.2 µM	66 µM	–	> 100 µM	32 µM
COc1cc(OC)c2c(Nc3ccccc3)cc(-c3ccccc3)nc2c1	> 100 µM	36.4 µM	13.2 µM	5.9 µM	–	22.2 µM	4.28 µM
CCCCNc1cc(-c2ccccc2)nc2cc(OC)cc(OC)c12	19.6 µM	4.46 µM	3.23 µM	3.92 µM	–	4.63 µM	3.05 µM
COc1cc(OC)c2c(N3CCOCC3)cc(-c3ccccc3)nc2c1	> 100 µM	> 100 µM	> 100 µM	> 100 µM	–	> 100 µM	28.1 µM
COc1cc(OC)c2c(NCc3ccccc3)cc(-c3ccccc3)nc2c1	12.8 µM	10.9 µM	–	7.15 µM	–	10.1 µM	12 µM
COc1cc(OC)c2c(NC3CCCCC3)cc(-c3ccccc3)nc2c1	6.59 µM	3.16 µM	–	6.08 µM	–	5.47 µM	3.82 µM

Reference: ChEMBL document CHEMBL3046194, “Synthesis and antitumor activity of novel 4-aminoquinoline derivatives” (Med Chem Res, 2013)
